Reference: the supplement of paper PMC10307832

Key:
Assay in all cases: relative viability (nuclei count vs DMSO), 5 days (fraction); higher = more cells survive
ABC-1 = tested on: ABC-1
How it was run: (§1)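 Medians of duplicate plates are given as relative viability. That measure is the nuclei count in treated wells divided by the count in vehicle wells. Counts were taken on 4× images of lung cancer cell lines in 1536-well plates, 5 days after pin-tool dosing the day after seeding with one drug alone or a fixed anchor-drug dose plus five library-drug doses (not always all listed) in √10 steps.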

NCI-H1975 = tested on: NCI-H1975
How it was run: as §1

NCI-H3122 = tested on: NCI-H3122
How it was run: as §1

CAL-12T = tested on: CAL-12T
How it was run: as §1

NCI-H1755 = tested on: NCI-H1755
How it was run: as §1

LXF-289 = tested on: LXF-289
How it was run: as §1

NCI-H441 = tested on: NCI-H441
How it was run: as §1

NCI-H2126 = tested on: NCI-H2126
How it was run: as §1

NCI-H1666 = tested on: NCI-H1666
How it was run: as §1

COR-L 105 = tested on: COR-L 105
How it was run: as §1

EMC-BAC-2 = tested on: EMC-BAC-2
How it was run: as §1

NCI-H2023 = tested on: NCI-H2023
How it was run: as §1

ChaGo-K-1 = tested on: ChaGo-K-1
How it was run: as §1

NCI-H2085 = tested on: NCI-H2085
How it was run: as §1

EPLC-272H = tested on: EPLC-272H
How it was run: as §1

UMC-11 = tested on: UMC-11
How it was run: as §1

NCI-H322M = tested on: NCI-H322M
How it was run: as §1

NCI-H1915 = tested on: NCI-H1915
How it was run: as §1

HCC-78 = tested on: HCC-78
How it was run: as §1

HOP-62 = tested on: HOP-62
How it was run: as §1

HCC-15 = tested on: HCC-15
How it was run: as §1

## Cc1sc2c(c1C)C(c1ccc(Cl)cc1)=N[C@@H](CC(=O)OC(C)(C)C)c1nnc(C)n1-2 [JQ1] + CC(C)C[C@H](NC(=O)[C@H](Cc1ccccc1)NC(=O)c1cnccn1)B(O)O [Bortezomib] (partner 0.002 µM)
ABC-1; first compound 0.04 µM
  relative viability: 0.306
ABC-1; first compound 0.1265 µM
  relative viability: 0.233
ABC-1; first compound 0.4 µM
  relative viability: 0.329
ABC-1; first compound 1.265 µM
  relative viability: 0.332
ABC-1; first compound 4 µM
  relative viability: 0.272
NCI-H1975; first compound 0.04 µM
  relative viability: 0.355
NCI-H1975; first compound 0.1265 µM
  relative viability: 0.258
NCI-H1975; first compound 0.4 µM
  relative viability: 0.317
NCI-H1975; first compound 1.265 µM
  relative viability: 0.177
NCI-H1975; first compound 4 µM
  relative viability: 0.152
NCI-H3122; first compound 0.04 µM
  relative viability: 1.01
NCI-H3122; first compound 0.1265 µM
  relative viability: 0.998
NCI-H3122; first compound 0.4 µM
  relative viability: 1.03
NCI-H3122; first compound 1.265 µM
  relative viability: 0.996
NCI-H3122; first compound 4 µM
  relative viability: 0.905
CAL-12T; first compound 0.04 µM
  relative viability: 1.06
CAL-12T; first compound 0.4 µM
  relative viability: 0.638
CAL-12T; first compound 1.265 µM
  relative viability: 0.415
CAL-12T; first compound 4 µM
  relative viability: 0.317
NCI-H1755; first compound 0.04 µM
  relative viability: 0.923
NCI-H1755; first compound 0.1265 µM
  relative viability: 0.807
NCI-H1755; first compound 0.4 µM
  relative viability: 0.995
NCI-H1755; first compound 1.265 µM
  relative viability: 0.618
NCI-H1755; first compound 4 µM
  relative viability: 0.44
LXF-289; first compound 0.04 µM
  relative viability: 0.977
LXF-289; first compound 0.1265 µM
  relative viability: 0.887
LXF-289; first compound 0.4 µM
  relative viability: 0.865
LXF-289; first compound 1.265 µM
  relative viability: 0.894
LXF-289; first compound 4 µM
  relative viability: 0.719
NCI-H441; first compound 0.04 µM
  relative viability: 0.611
NCI-H441; first compound 0.1265 µM
  relative viability: 0.363
NCI-H441; first compound 0.4 µM
  relative viability: 0.443
NCI-H441; first compound 1.265 µM
  relative viability: 0.189
NCI-H441; first compound 4 µM
  relative viability: 0.174
NCI-H2126; first compound 0.04 µM
  relative viability: 1.08
NCI-H2126; first compound 0.1265 µM
  relative viability: 1.01
NCI-H2126; first compound 0.4 µM
  relative viability: 1.14
NCI-H2126; first compound 1.265 µM
  relative viability: 0.981
NCI-H2126; first compound 4 µM
  relative viability: 0.966
NCI-H1666; first compound 0.04 µM
  relative viability: 0.658
NCI-H1666; first compound 0.1265 µM
  relative viability: 0.698
NCI-H1666; first compound 0.4 µM
  relative viability: 0.543
NCI-H1666; first compound 1.265 µM
  relative viability: 0.428
NCI-H1666; first compound 4 µM
  relative viability: 0.443
COR-L 105; first compound 0.04 µM
  relative viability: 0.584
COR-L 105; first compound 0.1265 µM
  relative viability: 0.348
COR-L 105; first compound 0.4 µM
  relative viability: 0.3
COR-L 105; first compound 1.265 µM
  relative viability: 0.292
COR-L 105; first compound 4 µM
  relative viability: 0.342
EMC-BAC-2; first compound 0.04 µM
  relative viability: 1.09
EMC-BAC-2; first compound 0.1265 µM
  relative viability: 0.961
EMC-BAC-2; first compound 0.4 µM
  relative viability: 0.91
EMC-BAC-2; first compound 1.265 µM
  relative viability: 0.621
EMC-BAC-2; first compound 4 µM
  relative viability: 0.544
NCI-H2023; first compound 0.04 µM
  relative viability: 0.966
NCI-H2023; first compound 0.1265 µM
  relative viability: 0.57
NCI-H2023; first compound 0.4 µM
  relative viability: 0.437
NCI-H2023; first compound 1.265 µM
  relative viability: 0.263
NCI-H2023; first compound 4 µM
  relative viability: 0.193
ChaGo-K-1; first compound 0.04 µM
  relative viability: 1.09
ChaGo-K-1; first compound 0.4 µM
  relative viability: 1.06
ChaGo-K-1; first compound 1.265 µM
  relative viability: 0.493
ChaGo-K-1; first compound 4 µM
  relative viability: 0.373
NCI-H2085; first compound 0.04 µM
  relative viability: 0.999
NCI-H2085; first compound 0.1265 µM
  relative viability: 0.861
NCI-H2085; first compound 0.4 µM
  relative viability: 0.893
NCI-H2085; first compound 1.265 µM
  relative viability: 0.61
NCI-H2085; first compound 4 µM
  relative viability: 0.564
EPLC-272H; first compound 0.04 µM
  relative viability: 0.915
EPLC-272H; first compound 0.1265 µM
  relative viability: 0.911
EPLC-272H; first compound 0.4 µM
  relative viability: 0.989
EPLC-272H; first compound 1.265 µM
  relative viability: 0.414
EPLC-272H; first compound 4 µM
  relative viability: 0.367
UMC-11; first compound 0.04 µM
  relative viability: 0.708
UMC-11; first compound 0.1265 µM
  relative viability: 0.522
UMC-11; first compound 0.4 µM
  relative viability: 0.367
UMC-11; first compound 1.265 µM
  relative viability: 0.216
UMC-11; first compound 4 µM
  relative viability: 0.136
NCI-H322M; first compound 0.04 µM
  relative viability: 1.33
NCI-H322M; first compound 0.1265 µM
  relative viability: 1.24
NCI-H322M; first compound 0.4 µM
  relative viability: 1.35
NCI-H322M; first compound 1.265 µM
  relative viability: 1.04
NCI-H322M; first compound 4 µM
  relative viability: 0.94
NCI-H1915; first compound 0.04 µM
  relative viability: 1.02
NCI-H1915; first compound 0.1265 µM
  relative viability: 0.706
NCI-H1915; first compound 0.4 µM
  relative viability: 0.961
NCI-H1915; first compound 1.265 µM
  relative viability: 0.678
NCI-H1915; first compound 4 µM
  relative viability: 0.642
HCC-78; first compound 0.04 µM
  relative viability: 0.53
HCC-78; first compound 0.1265 µM
  relative viability: 0.453
HCC-78; first compound 0.4 µM
  relative viability: 0.231
HCC-78; first compound 1.265 µM
  relative viability: 0.19
HCC-78; first compound 4 µM
  relative viability: 0.172
HOP-62; first compound 0.04 µM
  relative viability: 0.447
HOP-62; first compound 0.1265 µM
  relative viability: 0.641
HOP-62; first compound 0.4 µM
  relative viability: 0.515
HOP-62; first compound 1.265 µM
  relative viability: 0.11
HOP-62; first compound 4 µM
  relative viability: 0.111
HCC-15; first compound 0.04 µM
  relative viability: 0.958
HCC-15; first compound 0.4 µM
  relative viability: 0.98
HCC-15; first compound 1.265 µM
  relative viability: 0.705
HCC-15; first compound 4 µM
  relative viability: 0.628
